Assays:
[1] = Time-dependent solubility of slurries (HPLC) in aqueous hydrochloric acid (0.1 N) and phosphate buffer (pH 7.5) at 37° C.; type: physicochemical; details: phosphate buffer (pH 7.5)
[2] = as above; type: physicochemical
Procedure: a) Solubility in Aqueous Hydrochloric Acid (0.1 N)
102.39 mg of darolutamide form I were slurried in 20 mL aqueous hydrochloric acid (0.1 N) at 37° C.
99.41 mg of darolutamide form II were slurried in 20 mL aqueous hydrochloric acid (0.1 N) at 37° C.
b) Solubility in Phosphate Buffer (pH 7.5)
105.02 mg of darolutamide form I were slurried in 20 mL […] at 37° C.
103.41 mg of darolutamide form II were slurried in 20 mL […] at 37° C.
Samples were taken after 5 min, 15 min and 60 min. The suspensions were filtered and subjected undiluted to HPLC. The absolute solubility was calculated by creating a linear calibration curve (see below). Results are reported in Table 4 and in FIGS. 10 and 11.
Solutions of different concentrations (Table 5) of darolutamide were prepared in acetonitrile/water (75% v/v) at 37° C. and subjected to HPLC measurement. The resulting areas were illustrated as a function of the concentrations and a linear dependency could be observed (FIG. 12).

[3] = Gravimetric moisture sorption (GMS); type: physicochemical; details: for phase change during the GMS experiments: 0% to approximately 90% r.h.; for water uptake from 0% to 90% RH: 25±0.1° C.
Procedure: Moisture sorption isotherms were recorded with an SPSx-1p moisture sorption analyzer (ProUmid, Ulm. The measurement cycle was started at a relative humidity (r.h.) of 25%. Relative humidity was then decreased to 5% r.h. in 5% steps, followed by a further decrease to 3% r.h. and to 0% r.h. Afterwards r.h. was increased from 0% to approximately 90% r.h. in a sorption cycle and decreased to 0% in a desorption cycle in 5% steps. Finally r.h. was increased to 25% r.h. in 5% steps.
The time per step was set to a minimum of 2 hours and a maximum of 6 hours. If an equilibrium condition with a constant mass of 0.01% within 1 hour was reached before the maximum time for all examined samples the sequential humidity step was applied before the maximum time of 6 hours. If no equilibrium was achieved the consecutive humidity step was applied after the maximum time of 6 hours. The temperature was 25±0.1° C.

[4] = Food effect / blood levels after oral administration; type: in vivo

Structure (SMILES)	solubility (concentration in solution) ([1]; slurry time 5 min)	solubility (concentration in solution) ([1]; slurry time 15 min)	solubility (concentration in solution) ([1]; slurry time 60 min)	solubility (concentration in solution) ([2]; slurry time 5 min)	solubility (concentration in solution) ([2]; slurry time 15 min)	solubility (concentration in solution) ([2]; slurry time 60 min)	phase change during the GMS experiments ([3]; 25° C.)	water uptake from 0% to 90% RH ([3]; GMS)	food effect ([4]; compared to darolutamide Form I)	blood levels when administered without food ([4]; without food)	hygroscopicity (comparison) ([3]; GMS, 25° C.)
CC(O)c1cc(C(=O)N[C@@H](C)Cn2ccc(-c3ccc(C#N)c(Cl)c3)n2)n[nH]1 (mixture of isomers) [Form I, N-{(2S)-1-[3-(3-chloro-4-cyanophenyl)-1H-pyrazol-1-yl]-propan-2-yl}-5-[(1RS)-1-hydroxyethyl]-1H-pyrazole-3-carboxamide]	43 µg/mL	40 µg/mL	42 µg/mL	43 µg/mL	41 µg/mL	38 µg/mL	Neither form I nor form II underwent any phase change	+1.7%	–	–	–
CC(O)c1cc(C(=O)N[C@@H](C)Cn2ccc(-c3ccc(C#N)c(Cl)c3)n2)n[nH]1 (mixture of isomers) [Form II, N-{(2S)-1-[3-(3-chloro-4-cyanophenyl)-1H-pyrazol-1-yl]-propan-2-yl}-5-[(1RS)-1-hydroxyethyl]-1H-pyrazole-3-carboxamide]	89 µg/mL	97 µg/mL	93 µg/mL	113 µg/mL	121 µg/mL	117 µg/mL	Neither form I nor form II underwent any phase change	+1.3%	significantly lower food effect	still achieving therapeutically effective blood levels	less hygroscopic than form I
